One series has as its system MDA-MB-231 cells. Put plainly: Cell Titer-Glo Luminescent Cell Viability assay, breast cancer cells. The class given is cell-based, Human. To be noted: half-maximal inhibition at 24 h. How it is done:
(§1) Human breast cancer cells MDA-MB-231 and colorectal cancer cells HT29, were maintained in DMEM medium (Invitrogen, Cergy Pontoise, France). Human lung cancer cells NCI-H460-Luc2 (Caliper Life Sciences, US) (NSCLC) were maintained in RPMI 1640 (Hyclone Thermo Scientific, MA United States). All media were supplemented with antibiotics (penicillin 50.00 U/ml; streptomycin […]) (Invitrogen, Cergy Pontoise, France) and 10.00% fetal bovine serum (FBS, Biowest, Nouaille, France).
Cells were seeded in 96-well plates at a density of 5,000 cells/well. […] Control culture cells were treated with 0.10% DMSO.
(§2) The effect of the test compounds on cell viability was determined using a Cell Titer-Glo Luminescent Cell Viability assay (Promega Corporation, Madison, USA), based on quantification of ATP, which signals the presence of metabolically active cells. Luminescent signal was measured using GLOMAX Luminometer system. The data were presented as proportional viability (%) by comparing the treated group with the untreated cells, the viability of which is assumed to be 100%.
Inhibition rates ranged between 50.00 and 98.00% were recorded for all compounds at 100.00 μM concentration. The IC50 is the concentration at which half-maximal inhibition occurs at 24 h. Approximate IC50 value of 100.00 μM was obtained after 24.00 hours.
(§3) Exponentially growing MDA-MB-231, NCI-H460-Luc2 and HT29 cells were treated with vehicle (0.10% DMSO) and the indicated concentrations of investigated compounds. Viable cells were assayed as described in Materials and Methods. Exposure times of 24.00 and 48.00 hours were applied. All experiments were repeated at least three times.

The next series deals with HT29 cells. Put plainly: Cell Titer-Glo Luminescent Cell Viability assay, colorectal cancer cells. It is filed as cell-based, Human. To be noted: death of 50% of the cells, half-maximal inhibition at 24 h, read-out: IC50 HT29 Colon Cancer. How it is done:
as §1
(§4) Cells were seeded in 96-well plates at a density of 5,000 cells/well. After 24.00 hours of seeding, resultant cells' arrays were treated for 24.00-48.00 hours with increasing concentrations of the test compounds (5.00-100.00 μM), in triplicates. Control culture cells were treated with 0.10% DMSO.
as §2
(§5) The effects of investigated compounds at concentrations 5.00-100.00 μM on MDA-MB-231, NCI-H460-Luc2 and HT29 cells were investigated after 24.00 and 48.00 hours exposures. […] Inhibition rates ranged between 50.00 and 98.00% were recorded for all compounds at 100.00 μM concentration. The IC50 is the concentration at which half-maximal inhibition occurs at 24 h. Approximate IC50 value of 100.00 μM was obtained after 24.00 hours.
as §3
(In general: In ATP-based viability assays light output follows the ATP content of the culture.)

The next series deals with NCI-H460-Luc2 cells. As to the kind of experiment: Cell Titer-Glo Luminescent Cell Viability assay, lung cancer cells. It is filed as cell-based, Human. To be noted: death of 50% of the cells, half-maximal inhibition at 24 h. How it is done:
as §1, §4, §2, §5, §3

Structures are written as SMILES. Read-outs that look alike come from different tables or passages of the source.

8 molecules from US9051271B2, “Substituted pyridine derivatives useful in the treatment of cancer” (United Arab Emirates University, priority 2012, dated 2015) can be followed below.

The term melting point denotes the temperature, or range, at which the solid turns liquid. For the molecule `Cc1c(N=Nc2ccccc2F)c(-c2ccccc2)[nH]c(=O)c1C#N` [Id, 3-Cyano-4-methyl-6-phenyl-5-(2′-fluorophenylazo)-pyridine-2(1H)-one], the melting point was 225 °C.
Usually IC50 stands for the point on the concentration scale where inhibition reaches its midpoint. On to `Cc1c(N=Nc2ccc([N+](=O)[O-])cc2)c(-c2ccccc2)[nH]c(=O)c1C#N` [Ih, 3-Cyano-4-methyl-6-phenyl-5-(4′-nitronthenylazo)-pyridine-2(1H)-one], for which the IC50 with MDA-MB-231 cells was found to be 172 µM; in the series with HT29 cells, 29.9 µM; with NCI-H460-Luc2 cells it was 30.7 µM.
In the case of `Cc1c(N=Nc2ccc(F)cc2)c(-c2ccccc2)[nH]c(=O)c1C#N` [If, 3-Cyano-4-methyl-6-phenyl-5-(4′-fluorophenylazo)-pyridine-2(1H)-one], the melting point was 252 °C. This molecule also came in with an IC50 in the series with MDA-MB-231 cells (Homo sapiens, MDA-MB-231) of 75.4 µM. Moreover, the IC50 in the series with HT29 cells (Homo sapiens, HT-29) turned out to be 93.9 µM. The same molecule came in with an IC50 with NCI-H460-Luc2 cells (Homo sapiens) of 30 µM.
The molecule `Cc1[nH]c(=O)c(C#N)c(C)c1N=Nc1cccc(C(F)(F)F)c1` [Ib, 3-Cyano-4,6-dimethyl-5-(3′-trifluoromethylphenylazo)-pyridine-2(1H)-one] registered a melting point of 265 °C. This molecule also yielded an IC50 in the series on MDA-MB-231 cells (Homo sapiens, MDA-MB-231) of 270 µM.
With `Cc1[nH]c(=O)c(C#N)c(C)c1N=Nc1ccccc1F` [Ia, 3-Cyano-4,6-dimethyl-5-(2′-fluorophenylazo)-pyridine-2(1H)-one], the melting point was determined as 257 °C. The molecule also had an IC50 with MDA-MB-231 cells (Homo sapiens, MDA-MB-231) of 483 µM.
For the molecule `Cc1[nH]c(=O)c(C#N)c(C)c1N=Nc1ccc([N+](=O)[O-])cc1` [Compound Ig, 3-Cyano-4,6-dimethyl-5-(4′-nitrorthenylazo)-pyridine-2(1H)-one], the IC50 was 72.4 µM with MDA-MB-231 cells, 39 µM with HT29 cells and 29.8 µM in the series with NCI-H460-Luc2 cells.
For the molecule `Cc1[nH]c(=O)c(C#N)c(C)c1N=Nc1ccc(F)cc1` [Ic, 3-Cyano-4,6-dimethyl-5-(4′-fluorophenylazo)-pyridine-2(1H)-one], the melting point came to 272 °C. The same molecule showed an IC50 in the series on MDA-MB-231 cells (Homo sapiens, MDA-MB-231) of 216 µM.
Take `Cc1c(N=Nc2cccc(C(F)(F)F)c2)c(-c2ccccc2)[nH]c(=O)c1C#N` [Ie, 3-Cyano-4-methyl-6-phenyl-5-(3′-trifluoromethylphenylazo)-pyridine-2(1H)-one]: the melting point turned out to be 237 °C. Further, half-maximal inhibition in the series with MDA-MB-231 cells (Homo sapiens, MDA-MB-231) (IC50) was put at 90.5 µM. Further, the IC50 in the series on HT29 cells (Homo sapiens, HT-29) came to 64.5 µM. The same molecule returned an IC50 in the series on NCI-H460-Luc2 cells (Homo sapiens) of 35.9 µM.
